The values below come from publication PMC7708037, “Targeting OGG1 arrests cancer cell proliferation by inducing replication stress” (Nucleic Acids Research, 2020).

The structures appear in SMILES notation.

In data set [1] the test system is Hematological cancer cell lines. Kind of data set: Resazurin viability, cell line panel. In kind it is cell-based. The conditions noted are these: read-out: EC50, average over cell lines. As for the experimental part:
(§1) Cells were seeded in 96- or 384-well plates and incubated for 3 days for combination experiments or 5 days for single-drug exposure experiments. Resazurin (R7017, SigmaAldrich) was added to a final concentration of 0.01 mg/ml resazurin and fluorescence was measured at ex530/em590 after incubation for 2, 4 or 6 h. Curves were fitted using XLfit software (IDBS) or Prism 8.0 (Graphpad Software), and EC50 values were determined.
(§2) Figure 3. The OGG1 inhibitor TH5487 is selectively toxic to oncogene-expressing cells and cancer cell lines. (A) Close-up view of ligand TH5487 (green) binding to human OGG1. Important residues in the binding site are marked, hydrogen bond interactions are shown in black dashed line, water (red sphere)-mediated interactions in grey dashed line. (B) Comparison between the binding of ligand TH5487 (green) to human OGG1 (gray) with the structure of TH5675 (pink) bound to mouse OGG1 (yellow, PDB 6G3Y). (C) Viability of BJ-Tert and BJ-Ras cells exposed to the indicated concentrations TH5487 for five days. Data are average ±SD of four technical replicates from two independent experiments. (D) Clonogenic survival of cell lines exposed to TH5487. The cancer cell lines ACHN and H460, and the non-transformed cell lines MRC5 and Ogg1^−/− mouse embryonic fibroblasts (MEF) were incubated for 6–11 days in the presence of the indicated concentrations TH5487, followed by colony enumeration. Data are average ±SD values of four technical replicates, representative of three independent experiments. (E) TH5487 selectively decreases viability of cancer cell lines. EC50-values of 34 cancer (red) and 7 non-transformed cell lines (blue). Cells were exposed to a dilution series of TH5487 for five days followed by a viability assessment using resazurin. All cell lines were tested in two to ten independent experiments. Each point represents the EC50-value from one experiment (average of two or three technical replicates). (F) Comparative analysis of EC50 values for TH5487 in cancer- and non-transformed cell lines, and CD34+ hematopoietic stem cells, CD34- fraction from cord blood or PBMCs from healthy donor blood. All primary blood cells were tested upon activation with Dynabeads/Phytohemagglutinin or not and exposed to a dilution series of TH5487 to calculate EC50 values by resazurin assay.
Background: Alamar Blue is a resazurin reagent that responds to reducing activity.

For another data set, the system named is cancer cell lines. The data set is described as follows: Resazurin viability, cell line panel. In kind it is cell-based. As for the experimental part:
as §1, §2

Data set [2] deals with non-transformed cell lines. The data set is described as follows: Resazurin viability, cell line panel. In kind it is cell-based. The conditions noted are these: Figure 3F, read-out: EC50 (loss of proliferation), average over cell lines. How it is done:
as §1, §2

In data set [3] the test system is A3 shNT cells transcriptome. The data set is described as follows: RNA-sequencing and Gene Set Enrichment Analysis. In kind it is cell-based, human. The settings on record: 10 μM, 24 h vs DMSO. As for the experimental part: To extract bulk RNA from cells, the pellets were resuspended in 500 μl of TRI Reagent. After 5 min, 100 μl of chloroform was added and the tubes were shaken by hand for one minute. After 15 min incubation, the samples were centrifuged at 12 000 × g for 15 min at 4°C. 300 μl of the aqueous phase were then mixed thoroughly with 300 μl of Isopropanol, 30 μl of 3M Sodium Acetate and 1 μl of Pellet Paint (Merck 69049) and incubated over night at −20°C. The following day, the samples were centrifuged at 20 000 × g g for 30 min and the pellets washed twice with 600 μl of 70% ethanol. After drying, the pellets were resuspended in 15 μl of Elution Buffer and the concentration of RNA was measured using the Qubit RNA High Sensitivity Assay (Thermo Fischer Q32852) according to the manufacturer's instructions.
After diluting the samples, 2 ng of RNA were used as input for the Smart-seq2 RNA-sequencing protocol ([41]) and 50 bp single ends were sequenced on an Illumina HiSeq 3000 sequencer. Reads were mapped to the ENSEMBL human transcriptome GRCh37 using Tophat 2.1.1 to generate the read count matrix.
Differential expression analysis was performed with DESeq2 (v. 1.26.0) ([42]). […] For Gene Set Enrichment Analysis only genes with a mean expression >5 normalized counts as determined by DESeq2 were taken into account. […]
Figure 6. […] Only genes with a mean normalized count >5 were analyzed. […]

Details of data set [4]: method as in PMID 30442810. The conditions noted are these: cited from earlier work.
On the set-up of data set [5]: method as in PMID 30442810. The conditions noted are these: cited from earlier work. This is another data set of the same source.

Regarding `O=C(Nc1ccc(I)cc1)N1CCC(n2c(=O)[nH]c3c(Br)cccc32)CC1` [TH5487], the EC50 is 14.7 ± 4.7 µM in data set [1]; 17.9 ± 6.9 µM in the data set with cancer cell lines (tested cancer cell lines, Figure 3F, read-out: EC50 (loss of proliferation), average over cell lines); 36.9 ± 7.5 µM in data set [2]. Besides, the “Selectivity of growth inhibition, cancer vs non-transformed cell lines” value with cancer cell lines (large panel of cancer and non-transformed cell lines, 5 days) was “caused loss of viability in cancer cells while being better tolerated in non-transformed cell lines”. The “'DNA replication' gene signature (GSEA)” value in data set [3] is reported as “one of the most downregulated gene signatures”. For the same molecule, in data set [4], the “Fraction associated with plasma proteins” value was “more than 99%”. In data set [5], the Tolerability in mice entry was “well tolerated”.
